Source: patent US20250051762A1, “PLATFORM USING DNA-ENCODED SMALL MOLECULE LIBRARIES AND RNA SELECTION TO DESIGN SMALL MOLECULES THAT TARGET RNA” (University of Florida Research Foundation, Incorporated, priority 2021, published 2025)

Columns and labels:
Assay type in all cases: cell-based, human
PDCD4 = test: Western blot of PDCD4 in MDA-MB-231 cells; conditions: relative to β-actin, 48 h
Procedure: Western Blotting: MDA-MB-231 cells were grown in 6-well plates to ˜80% confluency in complete growth medium and then incubated with 9 at the indicated concentrations for 48 h. Total protein was extracted using M-PER Mammalian Protein Extraction Reagent (Pierce Biotechnology) using the manufacturer's protocol and quantified using a Micro BCA Protein Assay Kit (Pierce Biotechnology). Approximately 50 μg of total protein was separated on a 10% SDS-polyacrylamide gel, and then transferred to a PVDF membrane. The membrane was washed with 1× Tris-buffered saline (TBS) and then blocked in 1×TBST (1×TBS containing 0.1% (v/v) Tween-20) containing 5% (w/v) milk for 1 h at room temperature. […] The membrane was again washed with 1×TBST, and protein expression was quantified using SuperSignal West Pico Chemiluminescent Substrate (Pierce Biotechnology) per the manufacturer's protocol.
To quantify b-actin expression, used for normalization, the membrane was stripped using 1× Stripping Buffer (200 mM glycine, pH 2.2 and 0.1% SDS) followed by washing in 1×TBST. […] The fold change of the target protein expression (PP4C or PDCD4) was calculated by normalizing its band intensity to b-actin band intensity using ImageJ.

mutant pri-miR-27a = test: RT-qPCR of miR-27a biogenesis in MCF-10a cells transfected with mutant pri-miR-27a; conditions: mutant plasmid, 48 h
From the text: To gauge the specificity of 9 for pri-miR-27a, inhibition of biogenesis was first studied in a cellular model of healthy breast epithelium, MCF-10a, in which miR-27a expression is not detectable (Ct>31). MCF-10a cells were transfected with a plasmid encoding WT pri-miR-27a or mutant in which the two 5′GAG/3′CCC internal loops at and nearby the Drosha processing site were mutated to base pairs. In the absence of compound treatment, both primary miRNA transcripts were processed similarly, generating mature miR-27a, as determined by RT-qPCR.
(§1) Cell lines. Compounds were tested in MDA-MB-231 TNBC cells (HTB-26, ATCC), LNCaP metastatic prostate cancer cells (gifted from Junli Luo lab), MCF-7 (HTB-22, ATCC) breast cancer cells, HeLa cervical adenocarcinoma cells (CCL-2, ATCC), and MCF-10a, a model of healthy breast epithelial cells (CRL-10317, ATCC).
Cell culture and compound treatment. All cells were maintained at 37° C. with 5% CO2. […]
(§2) Analysis of mRNA abundance: Each cell line was grown as a monolayer in 12- or 24-well plates and treated as described in “Cell culture and compound treatment”. […] Relative abundance of mature miRNAs was calculated by normalizing to RNU6, and relative abundance for pri-miRNAs and mRNAs was calculated by normalizing to 18S ribosomal RNA, using the AAC, method. […]

pri-miR-27a = test: RT-qPCR of pri- and mature miR-27a in LNCaP cells
Procedure: as §1
Cell culture and compound treatment. All cells were maintained at 37° C. with 5% CO2. MDA-MB-231 and LNCaP cells were cultured in RPMI 1640 medium with L-glutamine & 25 mM HEPES (Corning) supplemented with 10% (v/v) fetal bovine serum (FBS; Sigma) and 1× (v/v) Antibiotic-Antimycotic solution (Corning). MCF-7 and HeLa cells were cultured in DMEM medium with 4.5 g/L glucose (Corning), supplemented with 10% FBS, 1× (v/v) Glutagro (Corning), and 1× (v/v) Antibiotic-Antimycotic solution. […]
as §2

Compound: C#CCN(CC(N)=O)C(=O)C[C@H](Cc1c[nH]c2ccccc12)NC(=O)[C@@H]1C[C@H](NC(=O)Cn2c(=O)[nH]c3ccccc3c2=O)CN1 [Compound 9]
- PDCD4 expression (PDCD4): upregulation
- inhibition of biogenesis of mutated pri-miR-27a (mutant pri-miR-27a): did not inhibit biogenesis
- dose with significant inhibition of miR-27a processing (pri-miR-27a): 100 nM
